Source: patent US20240116985A1, “STAPLED PEPTIDES AND METHODS THEREOF” (priority 2020, published 2024)
Values after ≈ are worked out from the molar mass of the structure shown. Read-outs that look alike come from different tables or passages of the source.

Key:
CHI Log D procedure = assay type: physicochemical; details: for CHI Log D: pH 7.4; for chromatographic logD: pH 7.4, CHI Log D
Solubility in PBS = assay type: physicochemical
In short: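 HPLC quantitation of peptide remaining in the PBS supernatant after ultracentrifugation, referenced to a 50 μM solution in DMSO.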

[1] = target: T1, full-length beta-Catenin (Uniprot ID P35222) (Homo sapiens, UniProt P35222); experiment: Fluorescence polarization IC50 (beta-catenin / 5FAM-TCF4 10-53 competition); assay type: binding
T1 construct: 10 nM full-length beta-Catenin (Uniprot ID P35222)
T1 sequence (P35222 1-781): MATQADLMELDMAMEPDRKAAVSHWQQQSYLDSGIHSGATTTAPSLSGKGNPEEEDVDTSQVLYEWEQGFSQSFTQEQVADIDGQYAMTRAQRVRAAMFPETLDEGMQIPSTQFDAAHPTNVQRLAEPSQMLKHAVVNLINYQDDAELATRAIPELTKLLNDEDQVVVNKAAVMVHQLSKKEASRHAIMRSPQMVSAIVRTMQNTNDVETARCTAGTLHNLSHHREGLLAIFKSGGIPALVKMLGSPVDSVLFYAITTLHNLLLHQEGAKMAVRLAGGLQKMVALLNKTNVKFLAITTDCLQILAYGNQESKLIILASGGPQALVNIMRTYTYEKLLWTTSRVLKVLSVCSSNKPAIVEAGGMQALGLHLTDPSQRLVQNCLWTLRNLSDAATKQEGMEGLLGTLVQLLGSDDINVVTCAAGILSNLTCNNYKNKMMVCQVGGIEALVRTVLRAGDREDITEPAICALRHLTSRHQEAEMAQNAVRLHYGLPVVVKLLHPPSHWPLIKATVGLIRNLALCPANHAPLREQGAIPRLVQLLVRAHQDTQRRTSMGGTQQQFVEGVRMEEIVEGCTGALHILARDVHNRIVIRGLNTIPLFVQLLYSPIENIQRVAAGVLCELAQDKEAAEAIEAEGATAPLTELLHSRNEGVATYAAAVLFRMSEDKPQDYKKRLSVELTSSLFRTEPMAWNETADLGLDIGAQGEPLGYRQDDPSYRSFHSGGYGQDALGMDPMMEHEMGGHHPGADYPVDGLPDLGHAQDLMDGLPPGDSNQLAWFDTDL

[2] = fluorescence polarization, read-out: beta-Catenin FP IC50

| Structure (SMILES) | CHI Log D (CHI Log D procedure) | Solubility (Solubility in PBS) | IC50 [1, 2] | IC50 ([1]; read-out: FP EC50) | chromatographic logD (CHI Log D procedure) | Solubility (Solubility in PBS; Solubility (uM)) |
| --- | --- | --- | --- | --- | --- | --- |
| CC[C@H](C)[C@@H]1NC(=O)[C@H](CC(=O)O)NC(=O)[C@]2(CC=CCCCC3(CCCC=CCCCCCC[C@@](C)(C(=O)N[C@@H](Cc4ccccc4)C(=O)N[C@@H](Cc4csc5ccccc45)C(N)=O)NC(=O)[C@H](CC(N)=O)NC(=O)[C@H](Cc4ccccc4)NC(=O)[C@H](C)NC(=O)[C@H](C)NC(=O)[C@H](CCC(=O)O)NC(=O)[C@H](CC(=O)O)NC3=O)NC1=O)CCCN2C(C)=O (stereo partly drawn) [I-715, Ac-PL3-Asp-Ile-B5-Asp-Glu-Ala-Ala-Phe-Asn-S8-Phe-BztA-NH2] | 2.762 | 25 µM (≈ 43.5 µg/mL) | 60.5 nM | 60.5 nM | – | – |
| CC(=O)N1CCC[C@]12CC=CCCCC1(CCCC=CCCCCCC[C@@](C)(C(=O)N[C@@H](Cc3ccsc3)C(=O)N[C@@H](Cc3csc4ccccc34)C(N)=O)NC(=O)[C@H](CC(N)=O)NC(=O)[C@H](Cc3ccccc3)NC(=O)[C@H](C)NC(=O)[C@H](C)NC(=O)[C@H](CCC(=O)O)NC(=O)[C@H](CC(=O)O)NC1=O)NC(=O)[C@H](CC(C)C)NC(=O)[C@H](CC(=O)O)NC2=O (stereo partly drawn) [I-716, Ac-PL3-Asp-Leu-B5-Asp-Glu-Ala-Ala-Phe-Asn-S8-3Thi-BztA-NH2] | 2.622 | 50 µM (≈ 87.4 µg/mL) | 91 nM | 91 nM | – | – |
| CC(=O)N1CCC[C@]12CC=CCCCC1(CCCC=CCCCCCC[C@@](C)(C(=O)N[C@@H](Cc3ccsc3)C(=O)N[C@@H](Cc3csc4ccccc34)C(N)=O)NC(=O)[C@H](CC(N)=O)NC(=O)[C@H](Cc3ccccc3)NC(=O)[C@H](C)NC(=O)[C@H](C)NC(=O)[C@H](CCC(=O)O)NC(=O)[C@H](CC(=O)O)NC1=O)NC(=O)[C@H](CC(C)C)NC(=O)[C@H](CC(=O)O)NC2=O (stereo partly drawn) [I-717, Ac-PL3-Asp-Leu-B5-Asp-Glu-Ala-Ala-Phe-Asn-S8-3Thi-BztA-NH2] | 2.694 | 35 µM (≈ 61.1 µg/mL) | 39 nM | 39 nM | – | – |
| CC(=O)N1CCC[C@]12CC=CCCCC1(CCCC=CCCCCCC[C@@](C)(C(=O)N[C@@H](Cc3ccsc3)C(=O)N[C@@H](Cc3csc4ccccc34)C(N)=O)NC(=O)[C@H](CC(N)=O)NC(=O)[C@H](Cc3ccccc3)NC(=O)[C@H](C)NC(=O)[C@H](C)NC(=O)[C@H](CCC(=O)O)NC(=O)[C@H](CC(=O)O)NC1=O)NC(=O)[C@H](CC(C)(C)C)NC(=O)[C@H](CC(=O)O)NC2=O (stereo partly drawn) [I-718, Ac-PL3-Asp-Npg-B5-Asp-Glu-Ala-Ala-Phe-Asn-S8-3Thi-BztA-NH2] | 2.765 | 38 µM (≈ 66.9 µg/mL) | 82 nM | 82 nM | – | – |
| CC(=O)N1CCC[C@]12CC=CCCCC1(CCCC=CCCCCCC[C@@](C)(C(=O)N[C@@H](Cc3ccsc3)C(=O)N[C@@H](Cc3csc4ccccc34)C(N)=O)NC(=O)[C@H](CC(N)=O)NC(=O)[C@H](Cc3ccccc3)NC(=O)[C@H](C)NC(=O)[C@H](C)NC(=O)[C@H](CCC(=O)O)NC(=O)[C@H](CC(=O)O)NC1=O)NC(=O)[C@H](CC(C)(C)C)NC(=O)[C@H](CC(=O)O)NC2=O (stereo partly drawn) [I-719, Ac-PL3-Asp-Npg-B5-Asp-Glu-Ala-Ala-Phe-Asn-S8-3Thi-BztA-NH2] | 2.818 | 28 µM (≈ 49.3 µg/mL) | 38 nM | 38 nM | – | – |
| CC[C@H](C)[C@@H]1NC(=O)[C@H](CC(=O)O)NC(=O)[C@]2(CC=CCCCC3(CCCC=CCCCCCC[C@@](C)(C(=O)N[C@@H](Cc4ccsc4)C(=O)N[C@@H](Cc4csc5ccccc45)C(N)=O)NC(=O)[C@H](CC(N)=O)NC(=O)[C@H](Cc4ccccc4)NC(=O)[C@H](C)NC(=O)[C@H](C)NC(=O)[C@H](CCC(=O)O)NC(=O)[C@H](CC(=O)O)NC3=O)NC1=O)CCCN2C(C)=O (stereo partly drawn) [I-720, Ac-PL3-Asp-Ile-B5-Asp-Glu-Ala-Ala-Phe-Asn-S8-3Thi-BztA-NH2] | 2.665 | 33 µM (≈ 57.7 µg/mL) | 75 nM | 75 nM | – | – |
| CC[C@H](C)[C@@H]1NC(=O)[C@H](CC(=O)O)NC(=O)[C@]2(CC=CCCCC3(CCCC=CCCCCCC[C@@](C)(C(=O)N[C@@H](Cc4ccsc4)C(=O)N[C@@H](Cc4csc5ccccc45)C(N)=O)NC(=O)[C@H](CC(N)=O)NC(=O)[C@H](Cc4ccccc4)NC(=O)[C@H](C)NC(=O)[C@H](C)NC(=O)[C@H](CCC(=O)O)NC(=O)[C@H](CC(=O)O)NC3=O)NC1=O)CCCN2C(C)=O (stereo partly drawn) [I-721, Ac-PL3-Asp-Ile-B5-Asp-Glu-Ala-Ala-Phe-Asn-S8-3Thi-BztA-NH2] | 2.722 | 28 µM (≈ 48.9 µg/mL) | 46 nM | 46 nM | – | – |
| CC[C@H](C)[C@@H]1NC(=O)[C@H](CC(=O)O)NC(=O)[C@]2(CC=CCCCC3(CCCC=CCCCCCC[C@@](C)(C(=O)N[C@@H](Cc4ccccc4)C(=O)N[C@@H](Cc4csc5ccccc45)C(=O)N[C@@H](CCC(N)=O)C(N)=O)NC(=O)[C@H](CCC(N)=O)NC(=O)[C@H](CC4CCCCC4)NC(=O)[C@H](C)NC(=O)[C@H](C)NC(=O)[C@H](CCC(=O)O)NC(=O)[C@H](CC(=O)O)NC3=O)NC1=O)CCCN2C(C)=O (stereo partly drawn) [I-722, Ac-PL3-Asp-Ile-B5-Asp-Glu-Ala-Ala-Cha-Gln-S8-Phe-BztA-Gln-NH2] | – | – | 1130 nM | – | 2.52 | 27 µM (≈ 51 µg/mL) |
| CC[C@H](C)[C@@H]1NC(=O)[C@H](CC(=O)O)NC(=O)[C@]2(CC=CCCCC3(CCCC=CCCCCCC[C@@](C)(C(=O)N[C@@H](Cc4ccccc4)C(=O)N[C@@H](Cc4csc5ccccc45)C(=O)N[C@@H](CCC(N)=O)C(N)=O)NC(=O)[C@H](CCC(N)=O)NC(=O)[C@H](Cc4ccc(-c5ccccc5)cc4)NC(=O)[C@H](C)NC(=O)[C@H](C)NC(=O)[C@H](CCC(=O)O)NC(=O)[C@H](CC(=O)O)NC3=O)NC1=O)CCCN2C(C)=O (stereo partly drawn) [I-723, Ac-PL3-Asp-Ile-B5-Asp-Glu-Ala-Ala-Bip-Gln-S8-Phe-BztA-Gln-NH2] | – | – | 3830 nM | – | 2.58 | 29 µM (≈ 56.8 µg/mL) |
| CC[C@H](C)[C@@H]1NC(=O)[C@H](CC(=O)O)NC(=O)[C@]2(CC=CCCCC3(CCCC=CCCCCCC[C@@](C)(C(=O)N[C@@H](Cc4ccccc4)C(=O)N[C@@H](Cc4csc5ccccc45)C(=O)N[C@@H](CCC(N)=O)C(N)=O)NC(=O)[C@H](CCC(N)=O)NC(=O)[C@H](Cc4cccc(OC)c4)NC(=O)[C@H](C)NC(=O)[C@H](C)NC(=O)[C@H](CCC(=O)O)NC(=O)[C@H](CC(=O)O)NC3=O)NC1=O)CCCN2C(C)=O (stereo partly drawn) [I-724, Ac-PL3-Asp-Ile-B5-Asp-Glu-Ala-Ala-3OMeF-Gln-S8-Phe-BztA-Gln-NH2] | – | – | 114 nM | – | 2.42 | 34 µM (≈ 65 µg/mL) |
| CC[C@H](C)[C@@H]1NC(=O)[C@H](CC(=O)O)NC(=O)[C@]2(CC=CCCCC3(CCCC=CCCCCCC[C@@](C)(C(=O)N[C@@H](Cc4ccccc4)C(=O)N[C@@H](Cc4csc5ccccc45)C(=O)N[C@@H](CCC(N)=O)C(N)=O)NC(=O)[C@H](CCC(N)=O)NC(=O)[C@H](C(c4ccccc4)c4ccccc4)NC(=O)[C@H](C)NC(=O)[C@H](C)NC(=O)[C@H](CCC(=O)O)NC(=O)[C@H](CC(=O)O)NC3=O)NC1=O)CCCN2C(C)=O (stereo partly drawn) [I-725, Ac-PL3-Asp-Ile-B5-Asp-Glu-Ala-Ala-DipA-Gln-S8-Phe-BztA-Gln-NH2] | – | – | 5000 nM | – | 2.61 | 42 µM (≈ 82.3 µg/mL) |
| CC[C@H](C)[C@@H]1NC(=O)[C@H](CC(=O)O)NC(=O)[C@]2(CC=CCCCC3(CCCC=CCCCCCC[C@@](C)(C(=O)N[C@@H](Cc4ccccc4)C(=O)N[C@@H](Cc4csc5ccccc45)C(=O)N[C@@H](CCC(N)=O)C(N)=O)NC(=O)[C@H](CCC(N)=O)NC(=O)[C@H](c4ccccc4)NC(=O)[C@H](C)NC(=O)[C@H](C)NC(=O)[C@H](CCC(=O)O)NC(=O)[C@H](CC(=O)O)NC3=O)NC1=O)CCCN2C(C)=O (stereo partly drawn) [I-726, Ac-PL3-Asp-Ile-B5-Asp-Glu-Ala-Ala-Phg-Gln-S8-Phe-BztA-Gln-NH2] | – | – | 5000 nM | – | 2.34 | 43 µM (≈ 80.4 µg/mL) |
